Assay results reported in patent US20140200175A1, “SUPPRESSION OF TOXIN PRODUCTION OF C[…]” (University of Central Florida Research Foundation, Inc., priority 2012, published 2014).
“Also recorded” adds a separate entry of the source.

Assays:
C. difficile = settings: added to the culture medium, concentration-dependent, reference (32); cited from earlier work
tcdB = settings: 16.7 mM, mRNA harvested after 72 hours of growth
[1] = test system: C. difficile (VPI10463) toxin A and toxin B; assay: Extracellular toxin in cell free supernatants by SDS-PAGE with GelCode Blue staining; type: cell-based, Clostridium difficile; settings: 16.7 mM; for toxin levels in media supernatants (band larger than 225 kDa): 72 hour growth period, 7.5% gel, versus control
Procedure: FIG. 2 illustrates that toxin production occurs earlier and is increased with the addition of L-proline or glycine to the culture media of C. difficile, but is diminished with L-hydroxyproline. C. difficile (VPI10463) culture media was collected by centrifugation at the indicated time points. Cell free supernatants were filtered (0.2 μm filter) and equal volumes (50 μL) were separated by SDS-PAGE and stained overnight with GelCode Blue. Gel migration was compared with that of purified toxin A (List Biologicals).
For analysis of extracellular toxins, 50 μL aliquots of cell free supernatant from each C. difficile culture across a 72 hour growth study was analyzed by sodium dodecyl sulfate-polyacrylamide gel electrophoresis (SDS-PAGE) (7.5% polyacrylamide). The separated proteins were visualized after staining overnight with GelCode Blue (Thermo Scientific, Waltham, Mass.).

C. difficile (VPI10463) [2] = assay: Growth curve of C. difficile in rich medium (TYGSe), optical density at 600 nm; type: cell-based, Clostridium difficile; settings: VPI10463, rich medium plus 16.7 mM amino acid, 72 hour growth period
tcdA = settings: 16.7 mM, mRNA harvested after 72 hours of growth
C. difficile spore = settings: alongside taurocholate, reference (45); cited from earlier work
C. difficile (VPI10463) [3] = settings: stationary phase (24 to 72 hours), 16.7 mM; versus control and the other amino acids
Procedure: Optical density (FIG. 1A) was followed for 72 hours after inoculation. Total protein (FIG. 1B) and extracellular protein (FIG. 1C) were quantified in cell free supernatants according to the method described by Bradford (46).
Optical density measurements of cultures at 600 nm were determined using a Molecular Devices SpectraMax 190 96-well plate reader at the times indicated for each experiment. Cultures were centrifuged at 16,100×g for five minutes. The resulting cell free supernatants were filtered (0.2 μm) and assayed for protein as described by Bradford (46) using bovine serum albumin (Thermo Scientific, Rockford, Ill.) as a standard.

SMILES | intracellular toxin levels (C. difficile) | reduction in tcdB transcription (tcdB; relative to control cells) [%] | toxin levels in media supernatants (band larger than 225 kDa) [1] | growth (in words) (C. difficile (VPI10463) [2]) | reduction in tcdA transcription (tcdA; relative to control cells) [%] | tcdB transcript relative to control cells (tcdB) | tcdA transcript relative to control cells (tcdA) | spore germination (C. difficile spore) | toxin produced earlier ([1]; onset of toxin band) | extracellular protein levels (C. difficile (VPI10463) [3])
N[C@@H](CS)C(=O)O [L-cysteine] | significantly reduced |  |  |  |  |  |  |  |  | 
O=C(O)[C@@H]1CC(O)CN1 (stereo partly drawn) [L-hydroxyproline, L-4-hydroxyproline] |  | ≥ 75 | no band corresponding to toxin was visible | largest increase in growth; also recorded: comparable growth | ≥ 75 |  |  |  |  | 
O=C(O)[C@@H]1CCCN1 [L-proline] | significantly reduced |  | higher toxin levels than the control |  |  | approximately three | approximately three |  |  | 
NCC(=O)O [glycine] |  |  | higher toxin levels than the control |  |  | nine | nine | potent spore co-germinant | approximately 24 hours | significantly higher
